Holding throughout (assay type): in vivo
In one series the test system is Cyperus difformis. Description: Test Example 3: herbicidal effect by foliage application, Wagner pot (symbol E). Particulars: application herbicide amount 320 g/ha. In outline: (§1)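 Rating at 3 weeks post-spray, by defined criteria. Treatment: emulsion diluted with water to a predetermined amount, applied evenly to foliage of 14-day-old plants raised in alluvial soil flooded 0.1–0.5 cm deep at 25–30 °C, rice co-sown.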

For series [1], the system named is Alopecurus myosuroides. Description: Test Example 5: herbicidal effect by foliage application, plastic box (symbol J). Conditions: 320 g/ha, 3 weeks after application. The method, boiled down: (§2)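 Emulsion formulation, diluted with water to the intended rate, was applied uniformly to leaves by small sprayer. Recipients were 14-day greenhouse-grown seedlings (25° C. to 30° C.). Assessment followed at 3 weeks.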

Series [2] has as its system Galium spurium. The experiment in a line: Test Example 4: herbicidal effect by soil treatment (symbol Q). Particulars: application herbicide amount 320 g/ha. In outline:
(§3)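 Seeds were sown in sterilized diluvial soil, covered with about 1.5 cm of soil, and the soil surface was sprayed with a water-diluted emulsion of the compound at a predetermined rate. Plants grew in a greenhouse at 25° C. to 30° C.; effects were scored visually 3 weeks after application.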

Another series has as its system Scirpus juncoides. Description: Test Example 1: herbicidal activity, application before weed generation in submerged conditions (symbol B). Particulars: application herbicide amount 320 g/ha. In outline:
(§4)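 Greenhouse growth at 25–30 °C lasted 3 weeks after treatment, when each weed was graded 0–5 by herbicidal ratio. Treatment was a diluted emulsion applied to the water surface of 4 cm-submerged alluvial soil on the sowing day.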

In another series the test system is Setaria viridis. Description: Test Example 4: herbicidal effect by soil treatment (symbol G). Particulars: application herbicide amount 320 g/ha. In outline: as §3
The test system of the next series is Apera spica-venti. The experiment in a line: Test Example 5: herbicidal effect by foliage application, plastic box (symbol L). Conditions: 320 g/ha, 3 weeks after application. The method, boiled down:
as §2

In series [3] the test system is Echinochloa crus-galli var. crus-galli. Description: Test Example 3: herbicidal effect by foliage application, Wagner pot (symbol H). Conditions: application herbicide amount 320 g/ha. The method, boiled down:
as §1

In the next series the test system is Abutilon theophrasti. Description: Test Example 5: herbicidal effect by foliage application, plastic box (symbol M). Conditions: 320 g/ha, 3 weeks after application. In outline: as §2
Series [4] has as its system rapeseed. The experiment in a line: Test Example 5: effect on crop by foliage application, plastic box (symbol g). Particulars: 320 g/ha, 3 weeks after application. The method, boiled down: (§5)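 Diluvial soil, sterilized and boxed (21 × 13 × 7 cm), received spot-sown seed covered by about 1.5 cm soil; plants were then greenhouse-grown at 25–30° C.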
Another series relates to Digitaria ciliaris. The experiment in a line: Test Example 5: herbicidal effect by foliage application, plastic box (symbol F). Conditions: 320 g/ha, 3 weeks after application. In outline:
as §2

The test system of series [5] is Alopecurus myosuroides. Description: Test Example 4: herbicidal effect by soil treatment (symbol J). Conditions: application herbicide amount 320 g/ha. In outline:
as §3

A further series has as its system Stellaria media. Description: Test Example 5: herbicidal effect by foliage application, plastic box (symbol P). Conditions: 320 g/ha, 3 weeks after application. The method, boiled down:
as §2

The subject of series [6] is rapeseed. The experiment in a line: Test Example 4: effect on crop by soil treatment (symbol g). Conditions: application herbicide amount 320 g/ha. The method, boiled down:
(§6)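 Sterilized diluvial soil, spot sowing, ~1.5 cm soil cover; greenhouse 25–30° C.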

Series [7] has as its system Echinochloa oryzacola Vasing. The experiment in a line: Test Example 1: herbicidal activity, application before weed generation in submerged conditions (symbol A). Conditions: application herbicide amount 320 g/ha. In outline: as §4
A further series relates to wheat. Description: Test Example 4: effect on crop by soil treatment (symbol e). Particulars: application herbicide amount 320 g/ha. In outline: as §6
A further series has as its system beet. The experiment in a line: Test Example 5: effect on crop by foliage application, plastic box (symbol f). Particulars: 320 g/ha, 3 weeks after application. In outline: as §5
The next series deals with Amaranthus retroflexus. The experiment in a line: Test Example 5: herbicidal effect by foliage application, plastic box (symbol N). Particulars: 320 g/ha, 3 weeks after application. In outline: as §2
In series [8] the test system is Galium spurium. The experiment in a line: Test Example 5: herbicidal effect by foliage application, plastic box (symbol Q). Conditions: 320 g/ha, 3 weeks after application. In outline: as §2

Consider `CON=C(C)CC1CC(O)=C(c2c(C)cccc2C)C1=O` (stereo not drawn) [6-112], for which, in the series with Cyperus difformis, the “herbicidal effect on E, grade 0-5” value was 4 (Herbicidal ratio of 70% or higher and lower than 90%). Moreover, the “J: Alopecurus myosuroides, herbicidal effect (criteria of Test Example 1)” value in the series with Alopecurus myosuroides [1] is on record as 5 (Herbicidal ratio of 90% or more (almost completely withered)). The “Herbicidal effect grade, Q: Galium spurium” value (shortened to “Herbicidal effect grade, Q”) with Galium spurium [2] was 0 (Herbicidal ratio of 5% or lower (almost no effect)). Moreover, the “Herbicidal effect grade, B: Scirpus juncoides” value (“Herbicidal effect grade, B” below) with Scirpus juncoides is given as 0 (Herbicidal ratio of 5% or lower (almost no effect)). For the same compound, the “Herbicidal effect grade, G: Setaria viridis” value (“Herbicidal effect grade, G” below) in the series on Setaria viridis is listed as 5 (Herbicidal ratio of 90% or more (almost completely withered)). The “L: Apera spica-venti, herbicidal effect (criteria of Test Example 1)” value (“L: Apera spica-venti, herbicidal effect” below) with Apera spica-venti is 5 (Herbicidal ratio of 90% or more (almost completely withered)). In [3], the “herbicidal effect on H (Echinochloa crus-galli var. crus-galli), grade 0-5” value (“herbicidal effect on H” for short) is 5 (Herbicidal ratio of 90% or more (almost completely withered)). Further, the “M: Abutilon theophrasti, herbicidal effect (criteria of Test Example 1)” value (shortened to “M: Abutilon theophrasti”) with Abutilon theophrasti was 4 (Herbicidal ratio of 70% or higher and lower than 90%). Moreover, the “g: rapeseed, effect on crop (criteria of Test Example 1)” value (“g: rapeseed, effect on crop” for short) in the series with rapeseed [4] was 4 (Herbicidal ratio of 70% or higher and lower than 90%). For the same compound, the “F: Digitaria ciliaris, herbicidal effect (criteria of Test Example 1)” value (from here on “F: Digitaria ciliaris, herbicidal effect”) in the series with Digitaria ciliaris is listed as 5 (Herbicidal ratio of 90% or more (almost completely withered)). The “Herbicidal effect grade, J: Alopecurus myosuroides” value (shortened to “Herbicidal effect grade, J”) in the series on Alopecurus myosuroides [5] is on record as 5 (Herbicidal ratio of 90% or more (almost completely withered)). Moreover, the “P: Stellaria media, herbicidal effect (criteria of Test Example 1)” value (“P: Stellaria media, herbicidal effect” below) in the series on Stellaria media is 1 (Herbicidal ratio of 5% or higher and lower than 20%). The “Effect on crop grade, g: rapeseed” value with rapeseed [6] is reported as 0 (Herbicidal ratio of 5% or lower (almost no effect)). Also, the “Herbicidal effect grade, A: Echinochloa oryzacola Vasing.” value in series [7] is on record as 5 (Herbicidal ratio of 90% or more (almost completely withered)). The “Effect on crop grade, e: wheat” value in the series on wheat is 3 (Herbicidal ratio of 40% or higher and lower than 70%). The “f: beet, effect on crop (criteria of Test Example 1)” value (shortened to “f: beet, effect on crop”) in the series on beet is 0 (Herbicidal ratio of 5% or lower (almost no effect)). Moreover, in the series with Amaranthus retroflexus, the “N: Amaranthus retroflexus, herbicidal effect (criteria of Test Example 1)” value (shortened to “N: Amaranthus retroflexus”) was 1 (Herbicidal ratio of 5% or higher and lower than 20%). Besides, the “Q: Galium spurium, herbicidal effect (criteria of Test Example 1)” value (shortened to “Q: Galium spurium, herbicidal effect”) in the series with Galium spurium [8] is 0 (Herbicidal ratio of 5% or lower (almost no effect)).

In the case of `CON=C(C)CC1CC(OC(=O)N2CCOCC2)=C(c2c(C)cc(-c3ccc(F)c(Cl)c3)cc2C)C1=O` (stereo not drawn) [6-093], in the series on Cyperus difformis, the “herbicidal effect on E, grade 0-5” value is 4 (Herbicidal ratio of 70% or higher and lower than 90%). Moreover, the “J: Alopecurus myosuroides, herbicidal effect (criteria of Test Example 1)” value in the series on Alopecurus myosuroides [1] was 5 (Herbicidal ratio of 90% or more (almost completely withered)). For the same compound, the “Herbicidal effect grade, Q” value in the series on Galium spurium [2] is recorded as 0 (Herbicidal ratio of 5% or lower (almost no effect)). Moreover, the “Herbicidal effect grade, B” value in the series on Scirpus juncoides is on record as 5 (Herbicidal ratio of 90% or more (almost completely withered)). The “Herbicidal effect grade, G” value in the series on Setaria viridis is 5 (Herbicidal ratio of 90% or more (almost completely withered)). Also, in the series on Apera spica-venti, the “L: Apera spica-venti, herbicidal effect” value is 5 (Herbicidal ratio of 90% or more (almost completely withered)). Moreover, the “herbicidal effect on H” value in series [3] is 5 (Herbicidal ratio of 90% or more (almost completely withered)). For the same compound, in the series on Abutilon theophrasti, the “M: Abutilon theophrasti” value was 3 (Herbicidal ratio of 40% or higher and lower than 70%). The “g: rapeseed, effect on crop” value with rapeseed [4] was 4 (Herbicidal ratio of 70% or higher and lower than 90%). The “F: Digitaria ciliaris, herbicidal effect” value in the series with Digitaria ciliaris is 5 (Herbicidal ratio of 90% or more (almost completely withered)). Also, in the series on Alopecurus myosuroides [5], the “Herbicidal effect grade, J” value was 3 (Herbicidal ratio of 40% or higher and lower than 70%). The “P: Stellaria media, herbicidal effect” value in the series on Stellaria media is 4 (Herbicidal ratio of 70% or higher and lower than 90%). Besides, the “Effect on crop grade, g: rapeseed” value in the series on rapeseed [6] is recorded as 0 (Herbicidal ratio of 5% or lower (almost no effect)). In [7], the “Herbicidal effect grade, A: Echinochloa oryzacola Vasing.” value is 5 (Herbicidal ratio of 90% or more (almost completely withered)). The “Effect on crop grade, e: wheat” value with wheat was 0 (Herbicidal ratio of 5% or lower (almost no effect)). Besides, the “f: beet, effect on crop” value in the series with beet was 3 (Herbicidal ratio of 40% or higher and lower than 70%). The “N: Amaranthus retroflexus” value in the series on Amaranthus retroflexus is 3 (Herbicidal ratio of 40% or higher and lower than 70%). The “Q: Galium spurium, herbicidal effect” value with Galium spurium [8] is on record as 5 (Herbicidal ratio of 90% or more (almost completely withered)).

Turning to `CON=C(C)CC1CC(O)=C(c2c(C)cc(-c3ccc(F)c(Cl)c3)cc2C)C1=O` (stereo not drawn) [6-085], the “herbicidal effect on E, grade 0-5” value in the series with Cyperus difformis was 5 (Herbicidal ratio of 90% or more (almost completely withered)). Also, the “J: Alopecurus myosuroides, herbicidal effect (criteria of Test Example 1)” value in the series on Alopecurus myosuroides [1] was 5 (Herbicidal ratio of 90% or more (almost completely withered)). Moreover, in the series with Galium spurium [2], the “Herbicidal effect grade, Q” value is 4 (Herbicidal ratio of 70% or higher and lower than 90%). For the same compound, in the series with Scirpus juncoides, the “Herbicidal effect grade, B” value is 3 (Herbicidal ratio of 40% or higher and lower than 70%). The “Herbicidal effect grade, G” value in the series on Setaria viridis is 5 (Herbicidal ratio of 90% or more (almost completely withered)). The “L: Apera spica-venti, herbicidal effect” value in the series with Apera spica-venti is reported as 5 (Herbicidal ratio of 90% or more (almost completely withered)). Also, the “herbicidal effect on H” value in series [3] is recorded as 5 (Herbicidal ratio of 90% or more (almost completely withered)). Also, the “M: Abutilon theophrasti” value in the series on Abutilon theophrasti is 4 (Herbicidal ratio of 70% or higher and lower than 90%). Besides, the “g: rapeseed, effect on crop” value in the series on rapeseed [4] is recorded as 5 (Herbicidal ratio of 90% or more (almost completely withered)). In addition, the “F: Digitaria ciliaris, herbicidal effect” value in the series with Digitaria ciliaris is reported as 5 (Herbicidal ratio of 90% or more (almost completely withered)). The “Herbicidal effect grade, J” value with Alopecurus myosuroides [5] is recorded as 5 (Herbicidal ratio of 90% or more (almost completely withered)). In the series on Stellaria media, the “P: Stellaria media, herbicidal effect” value is 3 (Herbicidal ratio of 40% or higher and lower than 70%). In addition, the “Effect on crop grade, g: rapeseed” value in the series with rapeseed [6] was 4 (Herbicidal ratio of 70% or higher and lower than 90%). In addition, the “Herbicidal effect grade, A: Echinochloa oryzacola Vasing.” value in series [7] is recorded as 5 (Herbicidal ratio of 90% or more (almost completely withered)). Further, the “Effect on crop grade, e: wheat” value in the series on wheat is 3 (Herbicidal ratio of 40% or higher and lower than 70%). Further, in the series on beet, the “f: beet, effect on crop” value is 4 (Herbicidal ratio of 70% or higher and lower than 90%). Moreover, the “N: Amaranthus retroflexus” value with Amaranthus retroflexus was 3 (Herbicidal ratio of 40% or higher and lower than 70%). Further, in the series with Galium spurium [8], the “Q: Galium spurium, herbicidal effect” value is 4 (Herbicidal ratio of 70% or higher and lower than 90%).

The values are drawn from patent US11000033B2, “Ketone or oxime compound, and herbicide” (NISSAN CHEMICAL CORPORATION, priority 2014, dated 2021).
